Results published in patent US20250002954A1, “Novel Compound, Use Thereof, and Method for Producing Same, and Compound-Containing Composition, Method for Producing 4-Trehalosamine, and Microorganism” (Microbial Chemistry Research Foundation, priority 2021, published 2025).

Columns and labels:
[1] = Measurement of micelle size by dynamic light scattering; type: physicochemical
Experimental: (§1) For the IMCTA-C8, IMCTA-C9, IMCTA-C10, IMCTA-C11, IMCTA-C12, IMCTA-C13, IMCTA-C14, and IMCTA-C15 (IMCTA-Cn) that were obtained in synthesis examples 1 to 8 and for n-dodecyl-β-D-maltoside (DDM) as control, “critical micelle concentration (CMC)”, “micelle size”, and “Hydrophilic-Lipophilic Balance (HLB) value” were measured or calculated in the following manner.
Micelle sizes were measured by dynamic light scattering with Zetasizer Nano S (manufactured by Malvern Panalytical).

[2] = test system: aggregated proteins Q74 and SynA53T in SH-SY5Y cells and NH-12 cells; assay: Elimination effect on aggregated protein in cells (Q74, SynA53T); type: cell-based, human; details: 100 mM 4-trehalosamine, 70 μM IMCTA-C14 or 100 mM trehalose, 14 hours; SH-SY5Y and NH-12 cells
Experimental: The effect of 4-trehalosamine or trehalose analog on Q74, which is partial peptide of huntingtin (Htt), the causal protein of Huntington's disease, and SynA53T, which is a mutation of α-synuclein, the causal protein of Parkinson's disease, (both aggregated proteins) was determined in the following manner.
Neuroblastoma cells SH-SY5Y (obtained from European Collection of Authenticated Cell Cultures (ECACC)) and human neuroblastoma cells NH-12 (obtained from RIKEN BRC) were each inoculated at 14×10^4 cells/mL and cultured in DMEM culture medium at 37° C. for 48 hours.
After the culture of SH-SY5Y cells and NH-12 cells, pEGFP-Q74 vector or EGFP-alphasynuclein-A53T (both obtained from addgene), which are expression vectors of aggregated protein, were transfected with transfection reagent (Viafect, manufactured by Promega). After 24 hours from the transfection, 100 mM 4-trehalosamine, 70 μM IMCTA-C14, or 100 mM trehalose was added and the cells were further treated for 14 hours. Untreated cells without addition of the compounds were used as control. After washing the cells three times with PBS, hyposmotic fluid (solution of one tablet of cOmplete, Mini, EDTA-free Protease Inhibitor Cocktail (CM, manufactured by Merck) in 50 mL of pure water) was added and the mixture was shaken on ice for 10 minutes. It was then centrifuged at 21,300×g for 10 minutes to be separated into soluble protein (Sol) and aggregated protein (Agg) […]. Thereafter, they were turned into samples for western blotting in a similar manner to test example 10-1.
The western blotting was performed in a similar manner to test example 4 except that anti-GFP antibody (manufactured by Proteintech) was used at 1/5,000 dilution and anti-LC3 antibody (manufactured by Cell Signaling Technology) was used at 1/2,000 dilution as the primary antibodies in the method described in test example 4. The results for neuroblastoma cells SH-SY5Y are shown in FIGS. 22A and 22B, and the results for human neuroblastoma cells NH-12 are shown in FIGS. 22C and 22D. […]

[3] = test system: human ovarian cancer cells OVK18 and human malignant melanoma cells Mewo; assay: Autophagy inducing effect on cultured cells (western blotting of autophagy-related proteins); type: cell-based
Experimental: Expression and phosphorylation patterns of autophagy-related proteins when human ovarian cancer cells or human malignant melanoma cells were treated with 4-trehalosamine and trehalose analog for 24 hours were determined by western blotting.
Human ovarian cancer cells OVK18 (obtained from RIKEN BRC) and human malignant melanoma cells Mewo (JCRB0066) were each inoculated on a 12-well microplate at 8×10^4 cells/mL/well and cultured in DMEM culture medium at 37° C. for 72 hours, after which they were treated with test samples.
The test samples used were the 4-trehalosamine (4TA) obtained in the <Purification process> of production example 10, trehalose (TRH), the IMCTA-Cn compounds obtained in synthesis examples 1 to 8, trehalose ester (TRH-Cn) (manufactured by Dojindo Laboratories), n-dodecyl-β-D-maltoside (DDM), maltose (MLT), sucrose (SCR), and rapamycin (RM). Untreated cells without addition of compounds were used as control.
In treatment with the test samples, in order to avoid contact of a compound with locally high concentration with cells, a half of the culture fluid in each well was taken, and a required amount of test sample was dissolved in it. After dissolving it sufficiently, it was returned to the original well and treated at 37° C. for 24 hours.
Subsequently, culture medium containing the test samples was removed, washed once with PBS, and dissolved with 2×SDS sample buffer not containing 2-mercaptoethanol (2-ME) or bromphenol blue (BPB). After measuring the protein concentration in the dissolved sample with a BCA protein assay kit (manufactured by Thermo Fisher Scientific), 2-ME and BPB were added and the sample was boiled for 5 minutes, which was used as a sample for western blotting.
The western blotting was performed in a similar manner to test example 4 except that anti-LC3 antibody, which is a marker for autophagy, anti-p62, anti-cathepsin D antibody, anti-Phospho-Akt (Ser473) antibody, anti-Akt antibody, anti-Phospho-p70 S6K (T389) antibody, and anti-p70 S6K antibody (all manufactured by Cell Signaling Technology) were used at 1/2,000 dilution as the primary antibodies in the method described in test example 4.
The results for human ovarian cancer cells OVK18 are shown in FIGS. 20A to 20C, and the results for human malignant melanoma cells Mewo are shown in FIGS. 20D to 20F. In FIGS. 20A, 20B, 20D, and 20E, “PCD” denotes precursors of cathepsin D and “CD-HC” denotes cathepsin D heavy chain.

[4] = Measurement of critical micelle concentration (CMC) with CMC assay kit; type: physicochemical
Experimental: as §1
CMC was measured with a Detergent Critical Micelle Concentration (CMC) Assay Kit (CMC1000, manufactured by ProFoldin) according to the product protocol.

[5] = test system: human ovarian cancer cells OVK18 and human malignant melanoma cells Mewo; assay: LC3-II expression in combination with autophagy inhibitor (bafilomycin or chloroquine); type: cell-based; details: 50 mM 4-trehalosamine, 50 μM IMCTA-C14 or 100 mM trehalose 14 hours, then 200 nM BM or 100 μM CQ 4 hours
Experimental: As with the test example 10-1, human ovarian cancer cells OVK18 (obtained from RIKEN BRC) and human malignant melanoma cells Mewo (JCRB0066) were each inoculated on a 12-well microplate at 8×10^4 cells/mL/well, and cultured in DMEM culture medium at 37° C. for 72 hours. After that, a half of the culture fluid in each well was taken and each compound was dissolved so that the final concentration is 50 mM 4-trehalosamine, 50 μM IMCTA-C14, or 100 mM trehalose. After dissolving it sufficiently, the cells were returned to the original well and treated at 37° C. for 14 hours. Untreated cells without addition of the compounds were used as control.
After that, each autophagy inhibitor was added so that the final concentration is 200 nM bafilomycin (BM) or 100 μM chloroquine (CQ), and the cells were cultured at 37° C. for 4 hours. A group with no inhibitor added was cultured in a similar way. After culture, they were turned into samples for western blotting in a similar manner to test example 10-1.
The western blotting was performed in a similar manner to test example 4 except that anti-LC3 antibody (manufactured by Cell Signaling Technology) was used at 1/2,000 dilution as the primary antibody in the method described in test example 4. The results for human ovarian cancer cells OVK18 are shown in FIG. 21A, and the results for human malignant melanoma cells Mewo are shown in FIG. 21B.
Also, the results (graphs) of image analysis on the results of western blotting via Image J (manufactured by National Institutes of Health) are shown in FIGS. 21A and 21B (n=10, mean±S.D.). The vertical axis of the graph indicates the value of the amount of expression (expression amount ratio) of LC3-II for the groups with the different compounds added when the amount of expression of LC3-II in the control (untreated cells) is 1. […]

[6] = test system: Mycobacterium smegmatis mc^2 (ATCC 700084); assay: Staining of mycobacterium with IMCTA-fluorescein, IMCTA-biotin or IMCTA-azide; type: cell-based
[7] = test system: Mycobacterium smegmatis bacterial cells; assay: TLC analysis of lipid components of IMCTA-fluorescein stained cells; type: cell-based; details: bacterial cells which had ingested IMCTA-fluorescein
Experimental: TLC analysis was performed on the lipid components of bacterial cell suspension of Mycobacterium smegmatis bacterial cells stained with IMCTA-fluorescein in test example 11-1 or bacterial cell suspension of Mycobacterium smegmatis bacterial cells treated with DMSO.
The TLC analysis was performed based on the method of Kai et al. (M. Kai et al., FEBS Lett 2007, 581, p. 3345-3350).
The bacterial cell suspension of Mycobacterium smegmatis bacterial cells stained with IMCTA-fluorescein in test example 11-1 or the bacterial cell suspension of Mycobacterium smegmatis bacterial cells treated with DMSO was centrifuged at 21,300×g for 1 minute. […]
In the TLC analysis, a Silica gel 60 TLC plate (manufactured by Merck) was used and the solvent was developed with chloroform/methanol/acetone/acetonitrile (90:10:6:1, v/v). The lipid as a whole was detected with phosphomolybdic acid solution similar to that in test example 1 and fluorescence was detected with a UV trans-illuminator (NTFM-20, manufactured by Analytik Jena US LLC).
The phosphomolybdic acid staining patterns for the entire component are shown in FIG. 26A and the fluorescence detection patterns are shown in FIG. 26B. […] In FIG. 26B, the arrows indicate components for which fluorescence is seen only in the IMCTA-fluorescein treated sample.

| Micelle size [1] [nm] | CMC [4] [mM] | Structure (SMILES) | aggregate of Q74 and aggregate of SynA53T [2] | accumulation of PCD (precursors of cathepsin D) ([3]; 24 hours) | concentration giving same or higher LC3-II expression, relative to trehalose ([3]; 24 hours) | p62 ([3]; 24 hours) | pAkt ([3]; 24 hours) | phosphorylation of p70 S6K ([3]; 24 hours) | expression of LC3-II (autophagy marker) ([3]; 24 hours treatment, western blotting) | expression of LC3-II in combination with bafilomycin (BM) or chloroquine (CQ) [5] | ingestion into bacterial cells and fluorescence (staining) ([6]; 10 μg/mL IMCTA-fluorescein, 30 μg/mL IMCTA-biotin, 10 μg/mL IMCTA-azide, 37° C., 8 hours) | ingestion in the presence of sucrose (blocking) ([6]; sucrose 1% or 3%) | ingestion in the presence of trehalose (blocking) ([6]; trehalose 1% or 3%) | fluorescent lipids detected by TLC [7] |
| --- | --- | --- | --- | --- | --- | --- | --- | --- | --- | --- | --- | --- | --- | --- |
| 16.5 ± 4.4 | 0.11 | CCCCCCCCCCCCCCN[C@@H]1C(CO)O[C@H](O[C@H]2OC(CO)[C@@H](O)C(O)C2O)C(O)C1O (some centres unmarked) [IMCTA-C14] | significantly decreased | no accumulation of PCD was observed | several thousand times lower than trehalose | accumulation trend of p62 | decreasing trend of pAkt | p70 S6K was not dephosphorylated | particularly strong expression | increased expression of LC3-II |  |  |  |  |
|  |  | O=C(N[C@@H]1C(CO)O[C@H](O[C@H]2OC(CO)[C@@H](O)C(O)C2O)C(O)C1O)c1ccc2c(c1)C(=O)OC21c2ccc(O)cc2Oc2cc(O)ccc21 (some centres unmarked) [IMCTA-fluorescein] |  |  |  |  |  |  |  |  | ingested into Mycobacterium smegmatis bacterial cells and emitted fluorescence | no significant inhibition | inhibition was observed in the presence of 1% trehalose | two fluorescent lipids were detected |
